Test results reported in patent US8969542B2, “HPV polyepitope constructs and uses thereof” (priority 2007, dated 2015).
Where a SMILES comes first, the peptide text is derived from it. Where no end group is shown, it is not given here.

Columns and labels:
[1] = system: CD8+ spleen cells of HLA transgenic mice (HLA-A01/Kb, F1 HLA-A02/KbxBalb/c, HLA-A11/Kb, HLA-A24/Kb); test: Immunogenicity after peptide pool/IFA immunization, direct ex vivo IFNγ ELISPOT; type: in vivo, mouse; conditions: for Peptide Pool SFC/10^6 cells Delta / Peptide Pool SFC/10^6 cells Ratio: immunization with pool of peptides emulsified in IFA, IFNγ ELISPOT; for Peptide Pool SFC/10^6 cells Delta: HLA transgenic mice (HLA-A01/A02/A11/A24), CD8+ cells restimulated with WT peptide 10 μg/mL; for Peptide Pool SFC/10^6 cells Ratio: HLA transgenic mice, response ratio, WT peptide 10 μg/mL
Experimental: CTL binding epitopes were evaluated for their immunogenicity in different HLA transgenic mice. To this, a single immunization with CTL peptide pools together with a common HTL epitope emulsified in IFA was performed and up to 14 days later, CD8+ spleen cells were isolated and evaluated for epitope specificity using a direct ex vivo IFNγ ELISPOT assay.
Peptides were dissolved in DMSO at a concentration of 10 mg/mL. For each of the 4 DNA constructs, the corresponding HLA-restricted peptides were pooled per HLA type (5 to 7 CTL peptides/pool). A known HTL peptide ([…]) was added and the peptide pools were diluted in PBS to the required peptide concentration (i.e. 25 μg of each CTL peptide and 120 μg HTL peptide in 50 μl). After adding an equal volume of IFA (Pierce, lot DG56079), the mixture was emulsified by forcing it through a small orifice. Mice were immunized subcutaneously at the base of the tail with 50 μl peptide/IFA mixture.
As negative control for the peptide-immunized mice, 18 mice (in total) were injected with a PBS/IFA mixture.
(§1) Mice were euthanized and spleen cells (SPC) were isolated 13 days after immunization. […] Spleen cells of DNA- and peptide-immunized HLA-A11/Kb mice were analyzed individually. SPC of all negative control mice were pooled per 2 mice, resulting in 3 data points for each peptide tested.
(§2) A direct ex vivo IFNγ ELISPOT assay was used as surrogate CTL readout. Basically, purified CD8+ cells were incubated with the individual HPV-specific HLA-restricted peptides (10 μg/mL) loaded on the appropriate antigen presenting cells (APC), in anti-mouse IFNγ antibody-coated ELISPOT plates. […] After 20 h incubation, IFNγ-producing cells were visualized by further developing the plates with biotinylated anti-mouse IFNγ antibody, streptavidin-HRP and AEC as substrate.
(§3) Some of the CTL epitopes included in the DNA constructs are analoged sequences of the wild type viral epitopes. For these particular epitopes, only the wild type sequences were used as in vitro stimulus for CTL readout.

[2] = system: CD8+ spleen cells of HLA transgenic mice (HLA-A01/Kb, F1 HLA-A02/KbxBalb/c, HLA-A11/Kb, HLA-A24/Kb); test: Immunogenicity after HPV DNA construct immunization, direct ex vivo IFNγ ELISPOT; type: in vivo, mouse; conditions: for ICCG6137 SFC/10^6 cells Delta / ICCG6137 SFC/10^6 cells Ratio: immunization with DNA construct ICCG 6137; for ICCG6137 SFC/10^6 cells Delta / ICCG6138 SFC/10^6 cells Delta: HLA transgenic mice (HLA-A01/A02/A11/A24), CD8+ cells restimulated with WT peptide 10 μg/mL; for ICCG6137 SFC/10^6 cells Delta / ICCG6137 SFC/10^6 cells Ratio / ICCG6138 SFC/10^6 cells Delta / ICCG6138 SFC/10^6 cells Ratio: IFNγ ELISPOT; for ICCG6137 SFC/10^6 cells Ratio / ICCG6138 SFC/10^6 cells Ratio: HLA transgenic mice, response ratio, WT peptide 10 μg/mL; for ICCG6138 SFC/10^6 cells Delta / ICCG6138 SFC/10^6 cells Ratio: immunization with DNA construct ICCG 6138; for Delta SFC/10^6 cells: HLA-A24 epitopes, HLA-A24/Kb mice, median of mouse pools
Experimental: The immunogenicity of HPV HLA class I-restricted epitopes encoded in the DNA constructs was tested in the relevant HLA transgenic mice. […] To ensure an equal distribution of mice between different groups, a randomisation procedure based on body weight was performed. Female and male mice (age between 8 and 24 weeks) were ranked by body weight, extreme light or heavy animals were excluded. The remaining animals were grouped by sequentially assigning animals for the 2 experiments.
Mice were pre-treated with cardiotoxin (Sigma, C9759) on day −4 by bilateral intramuscular injection of 100 μl (2×50 μl) of a 10 μM cardiotoxin solution. Four days later, all mice were immunised with 100 μg HPV-DNA plasmid (diluted to 1 mg/ml in PBS) by bilateral injection of 50 μg in the m. tibialis anterior. […]
as §1, §2, §3

HLA A3002 = HLA A3002 (Homo sapiens, UniProt P04439, D101N/D140H/D185E/E176R/F33S/G80R/H175R/K168Q/Q94H/R138E/R41S/V100E); test: HLA class I competition binding assay using soluble HLA
HLA A2402 = HLA A2402 (Homo sapiens, UniProt P04439, D101N/D140Y/D185E/E176V/E190D/F33S/G103R/G107R/I119L/I121M/I306V/K335N/L105A/L180Q/L300P/N151K/N90K/Q86E/Q94H/R106L/R138H/R89G/T104I/T345S/V100E/W191G/Y123F); test: as above
HLA A2302 = HLA A2302 (Homo sapiens, UniProt P04439, D101N/D140Y/D185E/E176V/E190D/F33S/G103R/G107R/H175R/I119L/I121M/I306V/K168Q/K335N/L105A/L180W/L300P/N151K/N90K/P307H/Q86E/Q94H/R106L/R138H/R89G/T104I/T345S/V100E/W191G/Y123F); test: as above
HLA A2902 = HLA A2902 (Homo sapiens, UniProt P04439, A270S/D101N/D185E/E176V/E277Q/E87Q/F33T/G231S/H175R/I121M/I218V/I322F/K168Q/L300P/L318F/M331R/P208A/P217A/Q86L/T323A/T345S/V100A/V358M); test: as above
HLA A3101 = HLA A3101 (Homo sapiens, UniProt P04439, A270S/D185E/E176V/E277Q/F33T/G231S/G80R/H175R/I121M/I218V/I322F/K168Q/L300P/L318F/M331R/P217A/Q94H/R138Q/T323A/T345S/T97I/V358M); test: as above
HLA A6801 = HLA A6801 (Homo sapiens, UniProt P04439, A269V/D185E/E176V/E277Q/E87N/F33Y/G231S/I121M/I166T/I218V/L180W/L300P/L318F/N151K/P208A/P217A/Q86R/R169H/T345S); test: as above

Row | Compound | Peptide Pool SFC/10^6 cells Delta [1] | ICCG6137 SFC/10^6 cells Delta [2] | ICCG6138 SFC/10^6 cells Delta [2] | IC50 (HLA A3002) | IC50 (HLA A2402) | IC50 (HLA A2902) | other results
1 | 150 (TLQEIVLHL; Human papillomavirus type 45) [compound 150] | 70 SFC/10^6 cells | 5 SFC/10^6 cells | 3 SFC/10^6 cells |  |  |  | Peptide Pool SFC/10^6 cells Ratio [1]: 8.0; ICCG6137 SFC/10^6 cells Ratio [2]: 2.0; ICCG6138 SFC/10^6 cells Ratio [2]: 1.3
2 | 151 (RTEVYQFAFK; Human papillomavirus type 45) [compound 151] | 1 SFC/10^6 cells | 1 SFC/10^6 cells | 1 SFC/10^6 cells |  |  |  | Peptide Pool SFC/10^6 cells Ratio [1]: 1.0; ICCG6137 SFC/10^6 cells Ratio [2]: 1.0; ICCG6138 SFC/10^6 cells Ratio [2]: 1.0
3 | 152 (SVYGTTLEK; Human papillomavirus type 31) [compound 152] | 730 SFC/10^6 cells | 1050 SFC/10^6 cells | 1150 SFC/10^6 cells |  |  |  | Peptide Pool SFC/10^6 cells Ratio [1]: 6.2; ICCG6137 SFC/10^6 cells Ratio [2]: 5.4; ICCG6138 SFC/10^6 cells Ratio [2]: 9.7
4 | 153 (HYTNWKFIY; Human papilloma virus) [compound 153] | 155 SFC/10^6 cells | 19 SFC/10^6 cells | 58 SFC/10^6 cells |  |  |  | Peptide Pool SFC/10^6 cells Ratio [1]: 2.7; ICCG6137 SFC/10^6 cells Ratio [2]: 1.3; ICCG6138 SFC/10^6 cells Ratio [2]: 1.3
5 | 154 (FYSRIRELRY; Human papilloma virus) [compound 154] | 165 SFC/10^6 cells | 45 SFC/10^6 cells | 33 SFC/10^6 cells |  |  |  | Peptide Pool SFC/10^6 cells Ratio [1]: 7.3; ICCG6137 SFC/10^6 cells Ratio [2]: 2.0; ICCG6138 SFC/10^6 cells Ratio [2]: 1.3
6 | CC[C@H](C)[C@H](NC(=O)[C@H](Cc1ccc(O)cc1)NC(=O)[C@H](Cc1ccccc1)NC(=O)[C@@H](NC(=O)[C@H](CC(N)=O)NC(=O)[C@H](Cc1ccc(O)cc1)NC(=O)CN)[C@@H](C)O)C(=O)N[C@@H](CCC(=O)O)C(=O)N[C@@H](Cc1ccccc1)C(=O)O [compound 41] |  |  |  | 1260 nM | 16 nM |  | 
7 | CSCC[C@H](N)C(=O)N[C@@H](Cc1ccc(O)cc1)C(=O)N[C@H](C(=O)N[C@@H](CS)C(=O)N[C@@H](CS)C(=O)N[C@@H](Cc1c[nH]cn1)C(=O)N[C@H](C(=O)N1CCC[C@H]1C(=O)N[C@@H](CC(C)C)C(=O)O)C(C)C)C(C)C [compound 42] (H-MYVCCHVPL-OH; N-terminus and C-terminus assumed) |  |  |  |  |  |  | Delta SFC/10^6 cells ([1]; HLA-A24 epitopes, HLA-A24/Kb mice, Peptide Pool, median of mouse pools): 1 SFC/10^6 cells; Delta SFC/10^6 cells ([2]; DNA construct ICCG6149): 1 SFC/10^6 cells; Delta SFC/10^6 cells ([2]; DNA construct ICCG6150): 1 SFC/10^6 cells
8 | CC(C)C[C@H](NC(=O)[C@H](CC(C)C)NC(=O)[C@@H](NC(=O)[C@H](CS)NC(=O)[C@H](Cc1ccccc1)NC(=O)[C@H](CS)NC(=O)[C@H](CC(C)C)NC(=O)[C@H](CC(C)C)NC(=O)[C@@H](N)Cc1ccccc1)C(C)C)C(=O)O [compound 51] (H-FLLCFCVLL-OH; N-terminus and C-terminus assumed) | 195 SFC/10^6 cells | 8 SFC/10^6 cells | 8 SFC/10^6 cells |  |  |  | 
9 | CC(C)C[C@H](NC(=O)[C@H](CS)NC(=O)[C@@H](NC(=O)[C@H](CO)NC(=O)[C@H](Cc1ccccc1)NC(=O)[C@H](CS)NC(=O)[C@H](CC(C)C)NC(=O)[C@H](CC(C)C)NC(=O)[C@@H](N)Cc1ccccc1)C(C)C)C(=O)O [compound 75] (H-FLLCFSVCL-OH; N-terminus and C-terminus assumed) | 75 SFC/10^6 cells | 1 SFC/10^6 cells | 1 SFC/10^6 cells |  |  |  | 
10 | FYSRIRELRF [compound 88] |  |  |  | > 20000 nM | 3.2 nM |  | IC50 (HLA A2302): 1 nM
11 | LSSALEIPY [compound 46] |  |  |  | 175 nM |  |  | 
12 | LYNLLIRCF [compound 44] |  |  |  |  |  | > 20000 nM | IC50 (HLA A2302): 10 nM
13 | NTELYNLLI [compound 70] |  |  |  | > 20000 nM |  | > 20000 nM | 
14 | PYLHSRLVVF [compound 61] |  |  |  |  | 38.7 nM | 4370 nM | IC50 (HLA A2302): 2.8 nM
15 | RQMNMSQWIK [compound 79] |  |  |  |  |  |  | IC50 (HLA A3101): 45 nM; IC50 (HLA A6801): 2560 nM
16 | SYFGMSFIHF [compound 39] |  |  |  | 1540 nM | 17.5 nM |  | 
17 | TVSATQLVK [compound 33] |  |  |  |  |  |  | IC50 (HLA A3101): 6140 nM
18 | VFTFPNPFPF [compound 62] |  |  |  | > 20000 nM |  | 603 nM | IC50 (HLA A2302): 12 nM
19 | VVFIYIPLF [compound 64] |  |  |  | 268 nM | 276 nM | 302 nM | 
20 | VYQFAFKDL [compound 87] |  |  |  |  | 4 nM | > 20000 nM | IC50 (HLA A2302): 1.1 nM
21 | YYMTDAGTW [compound 40] |  |  |  |  | 3.2 nM | 3410 nM | 
